Measurements published in patent publication US6936636B2, “5-[phenyl-tetrahydronaphthalene-2-yl dihydronaphthalen-2-yl and heteroaryl-cyclopropyl]-pentadienoic acid derivatives having serum glucose reducing activity” (Allergan, Inc., priority 2003, dated 2005).

Assays:
RXRβ [1] = target: T1, RXRβ (Homo sapiens, UniProt P28702); assay: RXR ligand binding assay
T1 construct: expressed in transfected cells
T1 sequence (P28702 1-533): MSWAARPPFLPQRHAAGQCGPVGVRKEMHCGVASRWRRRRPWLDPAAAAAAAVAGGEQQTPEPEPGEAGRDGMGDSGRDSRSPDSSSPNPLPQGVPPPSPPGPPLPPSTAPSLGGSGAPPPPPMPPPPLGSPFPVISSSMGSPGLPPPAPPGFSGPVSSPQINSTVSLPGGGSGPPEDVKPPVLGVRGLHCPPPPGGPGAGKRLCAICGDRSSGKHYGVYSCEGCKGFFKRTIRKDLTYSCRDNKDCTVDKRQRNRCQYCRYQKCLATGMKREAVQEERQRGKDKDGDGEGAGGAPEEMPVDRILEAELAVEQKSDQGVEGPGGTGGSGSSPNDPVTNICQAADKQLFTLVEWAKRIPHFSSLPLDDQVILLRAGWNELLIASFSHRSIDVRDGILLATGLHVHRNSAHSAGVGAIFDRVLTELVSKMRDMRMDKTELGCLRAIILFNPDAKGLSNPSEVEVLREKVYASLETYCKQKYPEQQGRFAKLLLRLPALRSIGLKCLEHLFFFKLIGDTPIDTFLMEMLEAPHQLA
Excerpt: (§1) A holoreceptor transactivation assay and a ligand binding assay which measure the antagonist/agonist like activity of the compounds of the invention, or their ability to bind to the several retinoid receptor subtypes, respectively, are described in published PCT Application No. WO WO93/11755 (particularly on pages 30-33 and 37-41) published on Jun. 24, 1993, the specification of which is also incorporated herein by reference. A detailed experimental procedure for holoreceptor transactivations has been described by Heyman et al. Cell 68, 397-406, (1992); Allegretto et al. J. Biol. Chem. 268, 26625-26633, and Mangelsdorf et al. The Retinoids: Biology, Chemistry and Medicine, pp 319-349, Raven Press Ltd., New York, which are expressly incorporated herein by reference. The results obtained in this assay are expressed in EC50 numbers, as they are also in the, chimeric receptor transactivation assay. The results of the ligand binding assay are expressed in Ki numbers. (See Cheng et al. Biochemical Pharmacology Vol. 22 pp 3099-3108, expressly incorporated herein by reference.)
(§2) In Tables 1 and 2 the binding Ki numbers are indicated in the first 3 columns. In the second set of three columns the numbers in parentheses indicate efficacy as a percentage compared to the standard compound, (2E, 4E, 1′S, 2′S)-3-methyl-5-[2′-methyl-2′-(5,5,8,8-tetramethyl-5,6,7,8-tetrahydro-naphthalen-2-yl)-cyclopropyl]-penta-2,4-dienoic acid and the other numbers indicate the measured EC50 in nanomolar concentration.

RXRα [2] = target: T2, RXRα (Homo sapiens, UniProt P19793); assay: RXR ligand binding assay
T2 construct: expressed in transfected cells
T2 sequence (P19793 1-462): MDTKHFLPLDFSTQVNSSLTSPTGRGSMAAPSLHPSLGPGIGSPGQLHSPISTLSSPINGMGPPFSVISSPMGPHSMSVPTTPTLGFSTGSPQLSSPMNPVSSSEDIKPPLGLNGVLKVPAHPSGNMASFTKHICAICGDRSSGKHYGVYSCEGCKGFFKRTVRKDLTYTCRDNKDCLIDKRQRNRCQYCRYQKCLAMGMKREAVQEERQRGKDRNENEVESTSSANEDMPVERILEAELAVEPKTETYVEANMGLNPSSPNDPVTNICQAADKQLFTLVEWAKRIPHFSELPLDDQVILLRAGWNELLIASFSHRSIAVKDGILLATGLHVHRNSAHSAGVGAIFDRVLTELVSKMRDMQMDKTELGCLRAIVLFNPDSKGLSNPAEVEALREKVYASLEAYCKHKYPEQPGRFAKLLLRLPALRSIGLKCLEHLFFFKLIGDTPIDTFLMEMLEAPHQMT
Excerpt: as §1, §2

RXRβ [3] = target: T1, RXRβ; assay: holoreceptor transactivation assay; type: cell-based; settings: for EC50: holoreceptor assay; for Transactivation % Efficiency RXRβ: efficacy as percentage compared to the standard compound
Excerpt: as §1
(§3) Efficacy in a transactivation assay is expressed as a percentage of the maximum potency attained by the compound compared to a standard which, in this, case, is the compound named (2E, 4E, 1′S, 2′S)-3-methyl-5-[2′-methyl-2′-(5,5,8,8-tetramethyl-5,6,7,8-tetrahydro-naphthalen-2-yl)-cyclopropyl]-penta-2,4-dienoic acid. This standard compound is described in U.S. Pat. No. 6,114,533.
(§4) Table 1 discloses the activity of certain exemplary tetrahydronaphthale compounds of the invention in the above-described RXR receptor transactivation and binding assays. […] The transactivation data pertaining to the activation of RXR receptors were obtained in the holoreceptor assay.
as §2

RXRα [4] = target: T2, RXRα; assay: holoreceptor transactivation assay; type: cell-based; settings: for Transactivation % Efficiency RXRα: efficacy as percentage compared to the standard compound; for EC50: holoreceptor assay
Excerpt: as §1, §3, §4, §2

RXRγ = target: T3, RXRγ (Homo sapiens, UniProt P48443); assay: holoreceptor transactivation assay; type: cell-based; settings: for Transactivation % Efficiency RXRγ: efficacy as percentage compared to the standard compound; for EC50: holoreceptor assay
T3 construct: expressed in transfected cells
T3 sequence (P48443 1-463): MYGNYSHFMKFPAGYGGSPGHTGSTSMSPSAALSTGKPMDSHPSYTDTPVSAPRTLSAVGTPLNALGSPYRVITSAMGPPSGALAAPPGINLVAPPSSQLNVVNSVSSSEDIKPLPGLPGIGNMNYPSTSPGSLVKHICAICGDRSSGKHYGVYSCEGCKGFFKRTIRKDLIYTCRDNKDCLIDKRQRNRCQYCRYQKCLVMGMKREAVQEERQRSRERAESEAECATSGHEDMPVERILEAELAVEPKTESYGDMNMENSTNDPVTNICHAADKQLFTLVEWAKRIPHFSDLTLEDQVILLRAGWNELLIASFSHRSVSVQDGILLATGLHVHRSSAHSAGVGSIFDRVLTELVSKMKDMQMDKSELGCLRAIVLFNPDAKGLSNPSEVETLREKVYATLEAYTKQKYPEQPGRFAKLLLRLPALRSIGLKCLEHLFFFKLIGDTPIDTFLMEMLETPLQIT
Excerpt: as §1, §3, §4, §2

[5] = system: female diabetic db/db mice; assay: serum glucose, triglyceride and thyroxine levels in diabetic db/db mice; type: in vivo; settings: for Glucose / Triglycerides / T4: db/db mice; for T4: Day 7
Excerpt: An assay described below tests the effect of compounds of the invention on serum glucose, tryglyceride and thyroxine levels in female 9-10 weeks old db/db mice.
Female diabetic db/db (9-10 weeks old) mice were maintained on standard laboratory food and treated by oral gavage with vehicle (corn oil), standard compound (2E, 4E, 1′S, 2S)-3-methyl-5-[2′-methyl-2′-(5,5,8,8-tetramethyl-5,6,7,8-tetrahydro-naphthalen-2-yl)-cyclopropyl]-penta-2,4-dienoic acid ([…]) daily for seven days at 8:00 AM. Blood samples (70 μl) were taken by orbital bleeding at 11:00 AM on day 0 (pre-treatment), day 3, and day 6. On day 7, a blood sample (700 μl) was taken at 11:00 AM and the animals were sacrificed. Glucose, triglyceride and thyroxine (T4) levels were determined on a Boehringer Manheim Hatachi Clinical Chemistry Analyzer using standard protocols provided by the manufacturer and reagents that were supplied in commercially available kits (glucose and T4: Boehringer Manheim; triglycerides: Roche Diagnostics). Seven animals were treated in each group.

[6] = Day 0 (pre-treatment), 50 mg/kg oral gavage daily
[7] = Day 3, 3 h, 50 mg/kg oral gavage daily
[8] = Day 6, 3 h, 50 mg/kg oral gavage daily
[9] = Day 0 (pre-treatment), 4 mg/kg oral gavage daily
[10] = Day 3, 3 h, 4 mg/kg oral gavage daily
[11] = Day 6, 3 h, 4 mg/kg oral gavage daily

Structure (SMILES)	Ki (RXRβ [1]) [nM]	Ki (RXRα [2]) [nM]	EC50 (RXRβ [3]) [nM]	Transactivation % Efficiency RXRα (RXRα [4]) [%]	EC50 (RXRα [4]) [nM]	Transactivation % Efficiency RXRγ (RXRγ) [%]	EC50 (RXRγ) [nM]	Transactivation % Efficiency RXRβ (RXRβ [3]) [%]	also measured
CCOC[C@H]1[C@@H](/C=C/C(C)=C/C(=O)O)C1(C)c1ccc2c(c1)C(C)(C)CCC2(C)C (stereo in doubt) [Compound 21b, (−)-(1R, 2S, 3S)-5-[3-Ethoxymethyl-2-methyl-2-(5,5,8,8-tetramethyl-5,6,7,8-tetrahydro-naphthalen-2-yl)-cyclopropyl]-3-methyl-penta-2E,4E-dienoic acid]	227	17	> 1000	41	28	34	44		
COC[C@H]1[C@@H](/C=C/C(C)=C/C(=O)O)[C@@]1(C)c1ccc2c(c1)C(C)(C)CCC2(C)C (stereo in doubt) [Compound 21a, (−)-(1R, 2S, 3 S)-5-[3-Methoxymethyl-2-methyl-2-(5,5,8,8-tetramethyl-5,6,7,8-tetrahydro-naphthalen-2-yl)-cyclopropyl]-3-methyl-penta-2E,4E-dienoic acid]	48	5	36	39	4	41	6	38	Glucose [5, 6]: 445 ± 66 mg/dL; Triglycerides [5, 6]: 271 ± 80 mg/dL; Glucose [5, 7]: 339 ± 194 mg/dL; Triglycerides [5, 7]: 130 ± 71 mg/dL; Glucose [5, 8]: 314 ± 196 mg/dL; Triglycerides [5, 8]: 180 ± 63 mg/dL; T4 ([5]; 50 mg/kg oral gavage daily): 4.2 ± 0.3 µg/dL
COCC1[C@@H](/C=C/C(C)=C/C(=O)O)C1(C)c1cc(C(C)C)cc(C(C)C)c1 (stereo in doubt) [Compound 31a, (−)-(1R, 2S, 3R)-5-[3-Methoxymethyl-2-methyl-2-(3,5-diisopropyl-phenyl)-cyclopropyl]-3-methyl-penta-2E,4E-dienoic acid]	25	7.6	17	104	2.7	101	3.6	90	
CCOC[C@@H]1[C@@H](/C=C/C(C)=C/C(=O)O)C1(C)c1ccc2c(c1)C(C)(C)CCC2(C)C (stereo in doubt) [Compound 23b, (−)-(1R, 2S, 3R)-5-[3-Ethoxymethyl-2-methyl-2-(5,5,8,8-tetramethyl-5,6,7,8-tetrahydro-naphthalen-2-yl)-cyclopropyl]-3-methyl-penta-2E,4E-dienoic acid]	121	27							
COCC1[C@@H](/C=C/C(C)=C/C(=O)O)C1(C)c1cc(C(C)C)cc(C(C)C)c1 (stereo in doubt) [Compound 29, (−)-(1R, 2S, 3S)-5-[3-Methoxymethyl-2-methyl-2-(3,5-diisopropyl-phenyl)-cyclopropyl]-3-methyl-penta-2E,4E-dienoic acid]	49	11	47	24	5	35	16	34	
CC(/C=C/[C@@H]1C[C@]1(C)c1ccc2c(c1)C(C)(C)CCC2(C)C)=C\C(=O)O [Standard compound, (2E, 4E, 1′S, 2′S)-3-methyl-5-[2′-methyl-2′-(5,5,8,8-tetramethyl-5,6,7,8-tetrahydro-naphthalen-2-yl)-cyclopropyl]-penta-2,4-dienoic acid]									Glucose [5, 9]: 423 ± 57 mg/dL; Triglycerides [5, 9]: 300 ± 76 mg/dL; Glucose [5, 10]: 315 ± 105 mg/dL; Triglycerides [5, 10]: 219 ± 80 mg/dL; Glucose [5, 11]: 268 ± 242 mg/dL; Triglycerides [5, 11]: 117 ± 22 mg/dL; T4 ([5]; 4 mg/kg oral gavage daily): 1.1 ± 0.2 µg/dL; effect on serum thyroxine levels (in words) ([5]; diabetic mammals): undesirable side effect of reducing serum thyroxine levels
COC[C@@H]1[C@@H](/C=C/C(C)=C/C(=O)O)C1(C)c1ccc2c(c1)C(C)(C)CCC2(C)C (stereo in doubt) [Compound 23a, (−)-(1R, 2S, 3R)-5-[3-Methoxymethyl-2-methyl-2-(5,5,8,8-tetramethyl-5,6,7,8-tetrahydro-naphthalen-2-yl)-cyclopropyl]-3-methyl-penta-2E,4E-dienoic acid]	188	18	546	9	27	9	60	9	
